Assay [1] relates to transgenic soybean expressing mutated PPO. As to the kind of experiment: Soybean segregating T1 individuals, greenhouse spray test (injury 0-9). It is filed as in vivo, Glycine max. The conditions noted are these: 1 week after treatment.
Assay [2] relates to transgenic Arabidopsis thaliana plants expressing wildtype or mutated PPO. As to the kind of experiment: Germination / growth inhibition assay of transgenic Arabidopsis T2 seeds in 48-well plates. The note with it: growth inhibition seven to ten days after seeding.
Setting [3] is: transgenic Arabidopsis AMATU_PPO2_F420I.
Where [4] appears, read: transgenic Arabidopsis AMATU_PPO2_F420L.
Setting [5] is: transgenic Arabidopsis AMATU_PPO2_F420M.
The mark [6] stands for this setting: transgenic Arabidopsis AMATU_PPO2_R128A_F420I.
Setting [7] is: transgenic Arabidopsis AMATU_PPO2_R128A_F420L.
[8] abbreviates: transgenic Arabidopsis AMATU_PPO2_R128A_F420M.
[9] abbreviates: transgenic Arabidopsis AMATU_PPO2_R128L.
Where [10] appears, read: transgenic Arabidopsis AMATU_PPO2_dG210.
The mark [11] stands for this setting: transgenic Arabidopsis AMATU_PPO2_dG210_R128L.
Where [12] appears, read: transgenic Arabidopsis AMATU_PPO2_wt.

Several values for one entry are separate records, joined by “and”; a condition that tells them apart may be missing. Equal entries are not always repeated.

Take `CS(=O)(=O)NC(=O)c1cc(Oc2ccc(C(F)(F)F)cc2Cl)ccc1[N+](=O)[O-]` [Fomesafen, fomesafen]: the “injury (0-9 point scale)” value in assay [1] (SDS10791 AmtuPPX2L R128A_F420I, Fomesafen 600 g ai/ha) was 6 and 3 (2×) and 1 (3×) and 4 and 2; in assay [1] (SDS-10642 AmtuPPX2L R128A_F420L, Fomesafen 600 g ai/ha), 0 (4×) and 1 (4×); in assay [1] (SDS-10648 AmtuPPX2L R128A_F420I, Fomesafen 600 g ai/ha), 5 and 3 (6×) and 4; in assay [1] (SDS-10652 AmtuPPX2L L397D_F420V, Fomesafen 600 g ai/ha) it was 1 (2×) and 2 (2×) and 0 (3×) and 4; in assay [1] (SDS-10787 AmtuPPX2L R128A_F420L, Fomesafen 600 g ai/ha) it was 1 (2×) and 0 (2×) and 2 (2×) and 5 and 3; in assay [1] (SDS-10985 AmtuPPX2L R128A_F420M, Fomesafen 600 g ai/ha), 3 (3×) and 0 (2×) and 1 (2×) and 5. Besides, the “injury (0-9 point scale)” value was 1 (2×) and 3 and 0 (2×) and 4 and 5 (2×) in assay [1] (SDS-10990 AmtuPPX2L R128A_F420M, Fomesafen 600 g ai/ha); 2 (2×) and 0 (3×) and 1 (3×) in assay [1] (SDS-11034 AmtuPPX2L R128A_F420V, Fomesafen 600 g ai/ha); 5 (4×) and 4 (4×) in assay [1] (wild type, Fomesafen 600 g ai/ha). Moreover, the “Relative tolerance rate as compared to a non-transgenic Arabidopsis plant (non-transgenic = 1.0)” value (“Relative tolerance rate … (non-transgenic = 1.0)” for short) in assay [2] (setting [3]) is 18; in assay [2] (setting [4]), 23; in assay [2] (setting [5]) it was 29; in assay [2] (setting [6]), 29; in assay [2] (setting [7]), 29; in assay [2] (setting [8]) it was 29. Further, the “Relative tolerance rate … (non-transgenic = 1.0)” value came to 27 in assay [2] (setting [9]), 29 in assay [2] (setting [10]), 29 in assay [2] (setting [11]) and 19 in assay [2] (setting [12]).
As for `CCOC(=O)C(C)OC(=O)c1cc(Oc2ccc(C(F)(F)F)cc2Cl)ccc1[N+](=O)[O-]` (centres unmarked) [Lactofen, lactofen], the “Relative tolerance rate … (non-transgenic = 1.0)” value in assay [2] (setting [3]) is reported as 17; in assay [2] (setting [4]), 19; in assay [2] (setting [5]) it was 29; in assay [2] (setting [6]) it was 27; in assay [2] (setting [7]), 29; in assay [2] (setting [8]), 29. The “Relative tolerance rate … (non-transgenic = 1.0)” value was found to be 22 in assay [2] (setting [9]), 19 in assay [2] (setting [10]), 29 in assay [2] (setting [11]) and 8 in assay [2] (setting [12]).
`Cc1nn(-c2cc(NS(C)(=O)=O)c(Cl)cc2Cl)c(=O)n1C(F)F` [Sulfentrazon, sulfentrazone]: the “injury (0-9 point scale)” value is 9 (5×) and 2 (2×) and 1 in assay [1] (SDS10791 AmtuPPX2L R128A_F420I, Sulfentrazone 350 g ai/ha); 3 (3×) and 4 and 9 (3×) and 2 in assay [1] (SDS10791 AmtuPPX2L R128A_F420I, Sulfentrazone 700 g ai/ha); 1 (2×) and 0 (3×) and 3 (2×) and 2 in assay [1] (SDS-10642 AmtuPPX2L R128A_F420L, Sulfentrazone 350 g ai/ha); 3 (3×) and 4 (2×) and 5 (2×) and 8 in assay [1] (SDS-10648 AmtuPPX2L R128A_F420I, Sulfentrazone 350 g ai/ha); 3 (2×) and 2 and 9 and 4 (4×) in assay [1] (SDS-10648 AmtuPPX2L R128A_F420I, Sulfentrazone 700 g ai/ha); 9 and 6 and 3 (2×) and 5 (2×) in assay [1] (SDS-10652 AmtuPPX2L L397D_F420V, Sulfentrazone 350 g ai/ha). Moreover, the “injury (0-9 point scale)” value in assay [1] (SDS-10787 AmtuPPX2L R128A_F420L, Sulfentrazone 350 g ai/ha) is 5 (4×) and 4 and 6 and 9 (2×); in assay [1] (SDS-10985 AmtuPPX2L R128A_F420M, Sulfentrazone 350 g ai/ha), 3 (4×) and 8 and 4 and 1; in assay [1] (SDS-10985 AmtuPPX2L R128A_F420M, Sulfentrazone 700 g ai/ha) it was 1 and 9 (2×) and 2 (2×) and 3 (2×) and 4; in assay [1] (SDS-10990 AmtuPPX2L R128A_F420M, Sulfentrazone 350 g ai/ha) it was 3 (4×) and 4 (2×) and 9 (2×); in assay [1] (SDS-10990 AmtuPPX2L R128A_F420M, Sulfentrazone 700 g ai/ha), 3 and 4 (4×) and 9 (3×); in assay [1] (SDS-11034 AmtuPPX2L R128A_F420V, Sulfentrazone 350 g ai/ha), 1 (3×) and 3 (2×) and 9 and 0. Besides, the “injury (0-9 point scale)” value in assay [1] (wild type, Sulfentrazone 350 g ai/ha) is 9 (5×) and 7 (2×) and 8. For the same compound, the “Relative tolerance rate … (non-transgenic = 1.0)” value in assay [2] (setting [3]) is 193; in assay [2] (setting [4]), 111; in assay [2] (setting [5]), 161; in assay [2] (setting [6]) it was 621; in assay [2] (setting [7]) it was 717; in assay [2] (setting [9]), 186. Further, the “Relative tolerance rate … (non-transgenic = 1.0)” value in assay [2] (setting [10]) came to 203; in assay [2] (setting [11]), 244.

The values above are taken from patent US11866720B2, “Transgenic or non-transgenic plants with mutated protoporphyrinogen oxidase having increased tolerance to herbicides” (priority 2013, dated 2024).
